Patent US6043219A, “Broad spectrum chemotherapeutic peptide” (Kansas State University Research Foundation, priority 1997, dated 2000)
Entries after “also recorded” stand apart in the source; their conditions may differ.

Tests used:
C. renale [1] = assay: Effect of BacR1 on viability of C. renale (A550 and viable cell counts over time); type: cell-based, Corynebacterium renale
Protocol: FIG. 9 includes a pair of graphs illustrating the effect of BacR1 on the viability C. renale; the A550 of a culture of control cells (-.circle-solid.-) and a culture of cells incubated with BacR1 at a concentration of 100 AU/ml (-.box-solid.-) was measured at respective times;
FIG. 10 includes a pair of graphs illustrating the effect of BacR1 on the viability C. renale; viable cell counts for a culture of control cells (-.circle-solid.-) and a culture of cells incubated with BacR1 at a concentration of 100 AU/ml (-.box-solid.-) were determined at respective times.
BacR1 kills C. renale in a dose-dependent fashion, with a MIC50 of approximately 6 AU/ml (FIG. 8). Furthermore, the killing is rapid in the absence of cell lysis as evidenced in FIGS. 9 and 10. No viable cells were detected after 120 min of exposure to BacR1. […] Such recovery would be observed with a bacteriostatic agent.

Streptococcus suis = assay: Inhibitory spectrum, bactericidal assay (plate method); type: cell-based
Corynebacterium renale = assay: as above; type: cell-based; details: C. renale compared with other sensitive organisms
[2] = tested on: Corynebacterium renale ATCC 19412; assay: Bactericidal assay of BacR1 (plate method)
Haemophilus parasuis = assay: Inhibitory spectrum, bactericidal assay (plate method); type: cell-based; details: Hemophilus parasuis
Pasteurella multocida = assay: as above; type: cell-based
C. renale [3] = details: finally purified BacR1, 37° C., 5 h, A550
C. renale [4] = assay: SDS-PAGE bioassay (gel overlaid with top agar containing C. renale); type: cell-based, Corynebacterium renale; details: finally purified BacR1
Source text: Purified preparations of BacR1 were subjected to electrophoretic analysis by SDS-PAGE. After electrophoresis, gels were either silver stained (Blum et al. 1987. Electrophoresis 8:93-99) or bioassayed using a slight modification of the method of Bhunia et al. (1987. J. Indust. Microbiol. 2:319-322). Briefly, each protein sample was electrophoresed in a 10-20% SDS-PAGE gradient gel (Bio-Rad, Richmond, Calif.) as previously described (Laemmli et al. 1970. Nature. 227:680-685). After electrophoresis, SDS was removed by soaking the gel in 20% isopropanol-10% acetic acid in water for 2 h, followed by rinsing in distilled water for 4 h. The gel was then placed on a BHT-80 agar plate and overlaid with BHT-80 top agar (0.7% agar) containing C. renale. After incubation at 37° C. overnight, the plate/gel combination was examined for zones of growth inhibition.

[5] = tested on: vancomycin-resistant strains of Enterococcus faecalis and E. faecium; assay: Additional analyses of the inhibitory spectrum; type: cell-based; details: remainder varying degrees of resistance
S. aureus = assay: Inhibitory spectrum, S. aureus; type: cell-based, Staphylococcus aureus
[6] = Preparative isoelectric focusing (Rotofor); type: physicochemical; details: ammonium sulfate-precipitated culture supernatant, ampholytes pH 3-10, fractions 15 through 17
Protocol: Isoelectric focusing of ammonium sulfate-precipitated culture supernatants of S. aureus UT0007 was carried out on a Rotofor isoelectric focusing cell (Bio-Rad, Richmond, Calif.) in order to define certain biophysical characteristics of BacR1. Concentrated culture supernatants were dialyzed overnight in 3,500 molecular-weight-cutoff dialysis tubing (SpectraPor, Los Angeles, Calif.) against 4 L distilled water at 4° C. The dialyzed sample was centrifuged at 9,000× g for 10 min at 4° C. to remove insoluble material, and the supernatant was diluted to a total volume of 55 ml with distilled water. Ampholytes (pH 3-10) (Fisher, St. Louis, Mo.) were added to a final concentration of 1% and the sample was loaded into the Rotofor cell for focusing at 12 W constant power at 4° C. The initial conditions were approximately 600 V and 35 mA; upon equilibrium the values were approximately 1200 V and 15 mA. Twenty individual fractions were harvested and the total protein, pH, and BacR1 activity for each fraction was determined.

Bordetella pertussis = assay: Inhibitory spectrum, bactericidal assay (plate method); type: cell-based; details: Bordatella pertussis
[7] = crude preparation, Rogolsky et al. paper; cited from earlier work
Moraxella bovis = assay: Inhibitory spectrum, bactericidal assay (plate method); type: cell-based
[8] = Stability of BacR1: residual activity by bactericidal assay (plate method) after treatments; type: physicochemical
Protocol: 7A, p. 315-422. […] Appl. Microbiol. 21:943].
The stability of BacR1 was assessed by determining the activity of BacR1 by bactericidal assay (plate method) after exposure to various temperatures, environmental conditions, and enzymes (Table 2). Solutions of finally purified BacR1 at a concentration of 640 AU/ml were used in these stability experiments. BacR1 samples were held at various temperatures for 15 min, were held at pHs ranging from 3 to 11 at room temperature for 1 h, were incubated in 6M urea at room temperature for 1 h, or were incubated with 1 mg/ml of enzyme at room temperature for 1 h.

Bordetella brochoseptica = assay: Inhibitory spectrum, bactericidal assay (plate method); type: cell-based; details: B. bronchoseptica
[9] = tested on: methicillin-resistant S. aureus (MRSA) strains; assay: Additional analyses of the inhibitory spectrum; type: cell-based, Staphylococcus aureus; details: ten MRSA strains tested

## BacR1: 26-mer proteinaceous bacteriocin of approximately 3.4 kilodaltons produced by S. aureus UT0007; peptide sequence SEQ ID No. 3 (LGGAATGVIGYISNQTCPTTACTRAC)
C. renale [1]; BacR1 100 AU/ml
  exposure time after which no viable cells were detected: 120 min
C. renale [1]; prolonged incubation, cells do not recover
  mode of action (bactericidal vs bacteriostatic): bactericidal
Streptococcus suis
  sensitivity to BacR1 (in words): killed
Corynebacterium renale
  relative susceptibility: equally (and most) sensitive
[2]; purification stage: Ammonium Sulfate
  Specific Activity: 1259 AU/mg
[2]; purification stage: C4 Reverse-Phase (1st cycle)
  Specific Activity: 16,642 AU/mg
[2]; purification stage: C4 Reverse-Phase (2nd cycle), finally purified
  Specific Activity: 37,450 AU/mg
[2]; purification stage: Cation Exchange
  Specific Activity: 6963 AU/mg
[2]; purification stage: Supernatant (1 L)
  Specific Activity: 152 AU/mg
Haemophilus parasuis
  sensitivity to BacR1 (in words): sensitive
Pasteurella multocida
  sensitivity to BacR1 (in words): killed
C. renale [3]
  MIC50 (concentration that caused a 50% inhibition of growth): approximately 6 AU/ml
C. renale [4]
  bactericidal activity in SDS-PAGE gel overlay: possessed BacR1 activity
[5]
  share of tested strains sensitive to BacR1: About 40%
S. aureus; S. aureus
  sensitivity to BacR1 (in words): killed
S. aureus; S. aureus compared with other sensitive organisms
  relative susceptibility: susceptible, but required higher doses
[6]
  apparent average pI: 7.7
Bordetella pertussis
  sensitivity to BacR1 (in words): sensitive
[7]
  maximum specific activity: 46 AU/mg
Moraxella bovis
  relative susceptibility: equally (and most) sensitive
Moraxella bovis; Moraxella bovis
  sensitivity to BacR1 (in words): especially sensitive
[8]; 4° C., 15 min, 640 AU/ml
  % Residual Activity: 100%
[8]; 25° C., 15 min, 640 AU/ml
  % Residual Activity: 100%
[8]; 37° C., 15 min, 640 AU/ml
  % Residual Activity: 100%
[8]; -20° C., 15 min, finally purified BacR1 640 AU/ml
  % Residual Activity: 100%
[8]; pH 3 to 11, room temperature, 1 h, 640 AU/ml
  % Residual Activity: 100%
Bordetella brochoseptica
  sensitivity to BacR1 (in words): killed; also recorded: sensitive
[9]
  sensitivity to BacR1 (in words): very sensitive
